Measured values: ChEMBL document CHEMBL4152386, “Discovery of a Novel Inhaled PI3Kδ Inhibitor for the Treatment of Respiratory Diseases” (J Med Chem, 2018)

Key:
[1] = target: Phosphatidylinositol 4,5-bisphosphate 3-kinase catalytic subunit gamma isoform (Homo sapiens, UniProt P48736); test: Inhibition of recombinant human N-terminal His6-tagged full length p110gamma using PIP2 as substrate preincubated for 30 mins followed by substrate addition by HTRF assay
PI3K p110 beta/p85 alpha = PI3K p110 beta/p85 alpha (Homo sapiens, UniProt P42338)
Description: Inhibition of recombinant human N-terminal His6-tagged full length p110beta/recombinant human full length p85alpha using PIP2 as substrate preincubated for 30 mins followed by substrate addition and HTRF assay

[2] = target: PI3-kinase p110-alpha/p85-alpha (Homo sapiens, UniProt P42336)
Description: Inhibition of recombinant human N-terminal His6-tagged full length p110alpha/recombinant human full length p85alpha using PIP2 as substrate preincubated for 30 mins followed by substrate addition by HTRF assay

[3] = Drug metabolism in human liver microsomes assessed as disappearance of parent compound at 5 uM after 30 mins in presence of NADPH by UPLC-MS/MS analysis; format: ADME, microsome; settings: read-out: Drug metabolism
[4] = Drug metabolism in rat liver microsomes assessed as disappearance of parent compound at 5 uM after 30 mins in presence of NADPH by UPLC-MS/MS analysis; format: ADME, microsome; settings: read-out: Drug metabolism
[5] = Drug metabolism in human liver microsomes assessed as disappearance of parent compound at 5 uM preincubated for 3 mins followed UDPG addition and measured after 120 mins by UPLC-MS/MS analysis; format: ADME, microsome; settings: read-out: Drug metabolism
[6] = target: PI3-kinase p110-delta/p85-alpha (Homo sapiens, UniProt O00329)
Description: Inhibition of recombinant human N-terminal His-tagged full length p110delta/recombinant human full length p85alpha using PIP2 as substrate preincubated for 30 mins followed by substrate addition by HTRF assay

[7] = Drug metabolism in rat liver microsomes assessed as disappearance of parent compound at 5 uM preincubated for 3 mins followed UDPG addition and measured after 120 mins by UPLC-MS/MS analysis; format: ADME, microsome; settings: read-out: Drug metabolism
Rattus norvegicus [8] = test: (§1) Anti-inflammatory activity in Brown Norway rat model of ovalbumin-induced inflammation assessed inhibition of eosinophil infiltration in bronchoalveolar lavage at 0.3 mg/kg, it administered 1 hr before ovalbumin aerosol challenge and measured 24 hrs post challenge by hematology analysis relative to control; format: functional; settings: inhaled or nasal
Rattus norvegicus [9] = test: as §1, with “neutrophil” for “eosinophil”; format: functional; settings: inhaled or nasal

Phosphatidylinositol 4,5-bisphosphate 3-kinase catalytic subunit gamma isoform, sequence (P48736 whole entry, canonical isoform): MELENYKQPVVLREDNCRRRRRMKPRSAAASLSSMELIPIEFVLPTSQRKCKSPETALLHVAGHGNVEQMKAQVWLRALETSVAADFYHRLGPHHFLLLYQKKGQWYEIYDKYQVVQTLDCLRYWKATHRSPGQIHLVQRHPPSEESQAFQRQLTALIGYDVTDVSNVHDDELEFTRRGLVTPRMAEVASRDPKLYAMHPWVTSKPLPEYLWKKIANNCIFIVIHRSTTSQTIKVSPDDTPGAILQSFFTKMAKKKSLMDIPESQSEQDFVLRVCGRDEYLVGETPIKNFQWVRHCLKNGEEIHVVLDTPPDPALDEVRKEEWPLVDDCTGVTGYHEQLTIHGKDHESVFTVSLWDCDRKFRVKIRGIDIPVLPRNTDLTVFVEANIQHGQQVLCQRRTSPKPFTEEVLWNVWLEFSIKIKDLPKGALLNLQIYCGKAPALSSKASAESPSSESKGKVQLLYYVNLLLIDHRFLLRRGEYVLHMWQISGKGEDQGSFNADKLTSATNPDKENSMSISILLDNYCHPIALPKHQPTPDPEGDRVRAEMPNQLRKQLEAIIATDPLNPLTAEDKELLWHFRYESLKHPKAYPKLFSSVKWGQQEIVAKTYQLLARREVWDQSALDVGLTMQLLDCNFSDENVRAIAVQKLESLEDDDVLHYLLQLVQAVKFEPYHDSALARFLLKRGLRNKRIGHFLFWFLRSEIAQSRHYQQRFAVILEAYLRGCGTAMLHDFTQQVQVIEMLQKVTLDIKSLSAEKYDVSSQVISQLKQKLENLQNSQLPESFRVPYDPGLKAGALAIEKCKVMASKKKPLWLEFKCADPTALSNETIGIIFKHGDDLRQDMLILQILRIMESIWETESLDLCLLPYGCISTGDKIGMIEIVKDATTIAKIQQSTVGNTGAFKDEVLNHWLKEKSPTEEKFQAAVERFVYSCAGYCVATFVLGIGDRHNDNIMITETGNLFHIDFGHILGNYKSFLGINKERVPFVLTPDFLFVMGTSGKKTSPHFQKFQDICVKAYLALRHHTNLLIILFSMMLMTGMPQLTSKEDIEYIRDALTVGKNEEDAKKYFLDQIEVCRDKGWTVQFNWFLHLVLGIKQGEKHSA
PI3-kinase p110-delta/p85-alpha, sequence (P27986 whole entry): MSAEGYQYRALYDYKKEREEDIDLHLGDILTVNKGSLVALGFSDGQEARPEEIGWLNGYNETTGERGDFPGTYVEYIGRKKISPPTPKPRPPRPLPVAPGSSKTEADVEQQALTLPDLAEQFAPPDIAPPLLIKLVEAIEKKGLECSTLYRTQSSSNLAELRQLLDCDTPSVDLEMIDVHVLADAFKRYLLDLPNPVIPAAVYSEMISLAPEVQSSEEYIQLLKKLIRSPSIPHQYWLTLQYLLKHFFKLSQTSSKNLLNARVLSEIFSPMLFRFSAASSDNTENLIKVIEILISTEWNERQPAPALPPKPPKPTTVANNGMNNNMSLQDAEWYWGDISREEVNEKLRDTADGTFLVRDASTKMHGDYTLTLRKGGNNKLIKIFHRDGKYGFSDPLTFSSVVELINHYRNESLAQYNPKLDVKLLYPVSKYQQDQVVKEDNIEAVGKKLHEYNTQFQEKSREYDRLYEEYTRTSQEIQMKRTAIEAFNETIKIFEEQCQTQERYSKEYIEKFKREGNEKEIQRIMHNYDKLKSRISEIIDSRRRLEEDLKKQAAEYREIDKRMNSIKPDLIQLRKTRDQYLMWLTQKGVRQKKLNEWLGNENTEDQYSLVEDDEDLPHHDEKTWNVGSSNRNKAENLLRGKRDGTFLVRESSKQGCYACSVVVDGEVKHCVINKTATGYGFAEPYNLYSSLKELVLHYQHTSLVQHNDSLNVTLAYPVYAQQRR
PI3-kinase p110-delta/p85-alpha, sequence (O00329 whole entry): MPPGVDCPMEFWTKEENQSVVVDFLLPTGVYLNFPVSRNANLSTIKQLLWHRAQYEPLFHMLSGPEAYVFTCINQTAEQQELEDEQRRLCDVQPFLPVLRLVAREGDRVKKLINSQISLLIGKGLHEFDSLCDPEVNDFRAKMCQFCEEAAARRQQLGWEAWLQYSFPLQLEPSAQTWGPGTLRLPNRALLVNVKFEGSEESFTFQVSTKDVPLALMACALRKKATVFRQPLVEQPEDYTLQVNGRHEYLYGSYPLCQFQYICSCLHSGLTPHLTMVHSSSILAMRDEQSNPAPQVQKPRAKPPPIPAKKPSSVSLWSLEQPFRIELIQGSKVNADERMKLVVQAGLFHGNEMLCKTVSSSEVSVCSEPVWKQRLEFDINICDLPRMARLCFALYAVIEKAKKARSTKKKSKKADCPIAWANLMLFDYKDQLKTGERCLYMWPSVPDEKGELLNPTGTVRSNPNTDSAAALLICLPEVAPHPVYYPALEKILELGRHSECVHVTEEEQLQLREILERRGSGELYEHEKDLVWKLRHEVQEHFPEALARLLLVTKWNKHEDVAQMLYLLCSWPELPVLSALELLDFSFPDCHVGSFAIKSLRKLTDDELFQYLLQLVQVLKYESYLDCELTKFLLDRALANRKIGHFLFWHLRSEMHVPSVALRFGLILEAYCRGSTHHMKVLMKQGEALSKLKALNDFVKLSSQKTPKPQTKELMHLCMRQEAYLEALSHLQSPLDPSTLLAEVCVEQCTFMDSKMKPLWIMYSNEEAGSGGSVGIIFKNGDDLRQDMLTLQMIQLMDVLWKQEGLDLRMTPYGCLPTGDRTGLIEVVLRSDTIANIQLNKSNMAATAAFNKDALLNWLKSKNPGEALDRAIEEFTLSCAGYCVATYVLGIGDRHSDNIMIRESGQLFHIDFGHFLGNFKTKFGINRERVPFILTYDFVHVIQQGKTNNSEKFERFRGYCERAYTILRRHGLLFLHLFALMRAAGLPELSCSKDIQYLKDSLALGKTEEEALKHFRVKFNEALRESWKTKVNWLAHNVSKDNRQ
PI3-kinase p110-alpha/p85-alpha, sequence (P27986 whole entry): as the sequence (P27986 whole entry) above
PI3-kinase p110-alpha/p85-alpha, sequence (P42336 whole entry): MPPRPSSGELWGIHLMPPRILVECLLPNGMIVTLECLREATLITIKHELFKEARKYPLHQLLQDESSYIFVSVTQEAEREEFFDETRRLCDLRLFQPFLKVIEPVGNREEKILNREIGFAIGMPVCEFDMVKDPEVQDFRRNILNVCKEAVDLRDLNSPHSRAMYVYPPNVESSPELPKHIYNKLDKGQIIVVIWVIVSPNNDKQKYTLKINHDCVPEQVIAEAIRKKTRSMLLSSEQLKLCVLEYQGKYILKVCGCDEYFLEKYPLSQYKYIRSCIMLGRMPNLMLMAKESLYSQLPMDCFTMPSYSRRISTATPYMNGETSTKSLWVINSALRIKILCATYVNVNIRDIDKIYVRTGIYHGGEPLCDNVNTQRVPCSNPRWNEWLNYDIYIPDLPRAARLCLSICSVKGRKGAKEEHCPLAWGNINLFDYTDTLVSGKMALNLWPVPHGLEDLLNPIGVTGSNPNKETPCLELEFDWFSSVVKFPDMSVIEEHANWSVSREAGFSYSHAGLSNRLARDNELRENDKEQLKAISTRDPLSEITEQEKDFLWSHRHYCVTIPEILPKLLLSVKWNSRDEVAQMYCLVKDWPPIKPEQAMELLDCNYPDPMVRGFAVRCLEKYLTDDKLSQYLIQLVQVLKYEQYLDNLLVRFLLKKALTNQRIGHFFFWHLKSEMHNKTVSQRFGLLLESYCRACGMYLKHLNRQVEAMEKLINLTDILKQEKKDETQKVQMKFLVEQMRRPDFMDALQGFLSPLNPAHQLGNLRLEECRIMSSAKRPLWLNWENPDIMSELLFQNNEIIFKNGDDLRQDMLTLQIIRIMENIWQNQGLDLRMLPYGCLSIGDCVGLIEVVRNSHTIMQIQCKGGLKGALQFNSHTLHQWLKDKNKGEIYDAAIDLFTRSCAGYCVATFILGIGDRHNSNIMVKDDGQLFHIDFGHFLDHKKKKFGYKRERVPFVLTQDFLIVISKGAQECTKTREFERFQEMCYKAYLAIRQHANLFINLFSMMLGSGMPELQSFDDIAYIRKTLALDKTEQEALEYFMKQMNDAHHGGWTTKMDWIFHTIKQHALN
PI3K p110 beta/p85 alpha, sequence (P27986 whole entry): as the sequence (P27986 whole entry) above
PI3K p110 beta/p85 alpha, sequence (P42338 whole entry): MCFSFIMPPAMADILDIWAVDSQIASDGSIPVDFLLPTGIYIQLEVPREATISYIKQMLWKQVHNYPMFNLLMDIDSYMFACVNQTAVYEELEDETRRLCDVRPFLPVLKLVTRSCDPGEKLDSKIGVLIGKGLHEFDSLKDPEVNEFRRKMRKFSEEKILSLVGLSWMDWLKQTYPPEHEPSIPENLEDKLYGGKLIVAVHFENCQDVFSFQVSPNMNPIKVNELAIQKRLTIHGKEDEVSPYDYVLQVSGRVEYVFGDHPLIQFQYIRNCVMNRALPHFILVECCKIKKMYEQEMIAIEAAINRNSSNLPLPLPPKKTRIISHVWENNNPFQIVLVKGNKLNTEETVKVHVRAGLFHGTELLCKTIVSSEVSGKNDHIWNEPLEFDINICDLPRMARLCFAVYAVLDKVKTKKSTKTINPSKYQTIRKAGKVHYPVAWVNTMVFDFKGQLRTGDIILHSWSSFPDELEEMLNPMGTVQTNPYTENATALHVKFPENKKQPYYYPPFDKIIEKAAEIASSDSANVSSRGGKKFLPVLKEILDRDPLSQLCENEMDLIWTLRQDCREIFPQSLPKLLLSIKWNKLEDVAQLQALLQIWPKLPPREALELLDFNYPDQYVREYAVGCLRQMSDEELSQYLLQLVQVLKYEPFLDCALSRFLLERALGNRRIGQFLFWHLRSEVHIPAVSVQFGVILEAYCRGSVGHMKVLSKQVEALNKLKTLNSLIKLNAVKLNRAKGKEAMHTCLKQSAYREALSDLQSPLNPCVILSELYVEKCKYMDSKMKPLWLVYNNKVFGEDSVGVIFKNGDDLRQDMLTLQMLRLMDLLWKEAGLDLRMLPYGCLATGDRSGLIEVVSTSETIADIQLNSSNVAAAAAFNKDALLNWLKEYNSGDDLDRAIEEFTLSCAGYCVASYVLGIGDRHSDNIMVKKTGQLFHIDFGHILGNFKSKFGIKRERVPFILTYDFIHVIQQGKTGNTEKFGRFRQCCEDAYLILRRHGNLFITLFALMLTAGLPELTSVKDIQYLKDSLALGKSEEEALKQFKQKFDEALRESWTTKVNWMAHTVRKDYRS

SMILES	IC50 [1]	IC50 (PI3K p110 beta/p85 alpha)	IC50 [2]	metabolised at 0.5 h, 5 µM [3]	metabolised at 0.5 h, 5 µM [4]	metabolised at 2 h, 5 µM [5]	IC50 [6]	metabolised at 2 h, 5 µM [7]	inhibition in vivo at 0.3 mg/kg (Rattus norvegicus [8])	inhibition in vivo at 0.3 mg/kg (Rattus norvegicus [9])
Cc1ccn2nc([C@H](C)Nc3ncnc(N)c3-c3ccc4cc[nH]c4c3)n(-c3ccccc3)c(=O)c12	420 nM	140 nM	8500 nM	50%	47%	9.6%				
Cc1ccn2nc([C@H](C)Nc3ncnc(N)c3-c3cc(O)cc(NS(C)(=O)=O)c3)n(-c3ccccc3)c(=O)c12	15 nM									
Cc1ccn2nc([C@H](C)Nc3ncnc(N)c3-c3cc(O)cc(C(F)(F)F)c3)n(-c3ccccc3)c(=O)c12	6.8 nM	10 nM	310 nM				0.2 nM			
Cc1ccn2nc([C@H](C)Nc3ncnc4[nH]cc(-c5cccc6[nH]ccc56)c34)n(-c3ccccc3)c(=O)c12	17 nM	12 nM	410 nM	92%	74%		0.2 nM			
Cc1ccn2nc([C@H](C)Nc3ncnc(N)c3-c3cnc(N)nc3)n(-c3ccccc3)c(=O)c12	120 nM	360 nM		27%		6%				
Cc1ccn2nc([C@H](C)Nc3ncnc(N)c3-c3ccc4oc(=O)[nH]c4c3)n(-c3ccccc3)c(=O)c12	430 nM	1300 nM					11 nM			
Cc1ccn2nc([C@H](C)Nc3ncnc(N)c3-c3cc(O)cc(Cl)c3)n(-c3ccccc3)c(=O)c12		57 nM	560 nM	55%	54%	97%	0.2 nM	83%		
Cc1ccn2nc([C@H](C)Nc3ncnc4[nH]cc(-c5cccc6cc[nH]c56)c34)n(-c3ccccc3)c(=O)c12		79 nM					1.3 nM			
Cc1ccn2nc([C@H](C)Nc3ncnc4[nH]cc(Cc5cccc(O)c5)c34)n(-c3ccccc3)c(=O)c12	64 nM	210 nM	2900 nM	100%	72%		1.4 nM			
Cc1ccn2nc([C@H](C)Nc3ncnc(N)c3C#N)n(-c3ccccc3)c(=O)c12	65 nM	120 nM	2300 nM				1 nM			
C[C@H](Nc1ncnc(N)c1C#N)c1nn2cccc2c(=O)n1-c1ccccc1					16%					
Cc1ccn2nc([C@H](C)Nc3ncnc4[nH]cc(C(=O)Nc5cccc(O)c5)c34)n(-c3ccccc3)c(=O)c12	13 nM	230 nM	1000 nM				2 nM			
Cc1ccn2nc([C@H](C)Nc3ncnc(N)c3-c3cc(O)cc(F)c3)n(-c3ccccc3)c(=O)c12	40 nM	110 nM	1900 nM	84%	75%	74%	0.6 nM	26%		
Cc1ccn2nc([C@H](C)Nc3ncnc(N)c3C(=O)Nc3cccc(O)c3)n(-c3ccccc3)c(=O)c12	10 nM	39 nM	1400 nM	60%	42%		0.2 nM			
C[C@@H]1C[C@H]2[C@@H]3C[C@H](F)C4=CC(=O)C=C[C@]4(C)[C@@]3(F)[C@@H](O)C[C@]2(C)[C@@]1(O)C(=O)SCF [FLUTICASONE]									82%	89%
Cc1ccn2nc([C@H](C)Nc3ncnc(N)c3Cc3cccc(O)c3)n(-c3ccccc3)c(=O)c12		3000 nM	6600 nM				22 nM			
Cc1ccn2nc([C@H](C)Nc3ncnc(N)c3-c3ccc(O)cc3)n(-c3ccccc3)c(=O)c12	160 nM	1700 nM	8400 nM	84%	22%	76%	22 nM	21%		
Cc1ccn2nc([C@H](C)Nc3ncnc(N)c3-c3cccc(NS(C)(=O)=O)c3)n(-c3ccccc3)c(=O)c12	1.7 nM	37 nM	730 nM	97%	32%		0.3 nM			
Cc1ccn2nc([C@H](C)Nc3ncnc(N)c3Sc3cccc(O)c3)n(-c3ccccc3)c(=O)c12	45 nM	950 nM	8400 nM	100%	94%		1.8 nM			

Continued, in another order:

IC50 [1]	IC50 (PI3K p110 beta/p85 alpha)	IC50 [2]	metabolised at 0.5 h, 5 µM [3]	metabolised at 0.5 h, 5 µM [4]	metabolised at 2 h, 5 µM [5]	IC50 [6]	metabolised at 2 h, 5 µM [7]	SMILES	inhibition in vivo at 0.3 mg/kg (Rattus norvegicus [8])	inhibition in vivo at 0.3 mg/kg (Rattus norvegicus [9])
3.3 nM	7.3 nM	250 nM	58%	21%		0.3 nM		Cc1ccn2nc([C@H](C)Nc3ncnc4[nH]cc(-c5cc(C(F)(F)F)ccc5O)c34)n(-c3ccccc3)c(=O)c12		
0.7 nM	4.1 nM	110 nM				0.4 nM		Cc1ccn2nc([C@H](C)Nc3ncnc4[nH]cc(-c5ccc(O)cc5)c34)n(-c3ccccc3)c(=O)c12		
0.3 nM	1.3 nM	1.2 nM				0.2 nM		COc1cc(-c2c[nH]c3ncnc(N[C@@H](C)c4nn5ccc(C)c5c(=O)n4-c4ccccc4)c23)ccc1O		
0.7 nM	2.5 nM	22 nM	67%	16%	94%	0.2 nM	28%	Cc1ccn2nc([C@H](C)Nc3ncnc4[nH]cc(-c5cc(O)cc(NS(C)(=O)=O)c5)c34)n(-c3ccccc3)c(=O)c12		
81 nM	14 nM	760 nM	99%	58%	90%	0.2 nM	44%	COc1cccc(-c2c[nH]c3ncnc(N[C@@H](C)c4nn5ccc(C)c5c(=O)n4-c4ccccc4)c23)c1O		
3.1 nM	29 nM	190 nM	74%	23%		0.3 nM		Cc1ccn2nc([C@H](C)Nc3ncnc4[nH]cc(-c5cccc(NS(C)(=O)=O)c5)c34)n(-c3ccccc3)c(=O)c12		
0.6 nM	2.3 nM	9 nM				0.2 nM		Cc1ccn2nc([C@H](C)Nc3ncnc4[nH]cc(-c5cc(O)cc(F)c5)c34)n(-c3ccccc3)c(=O)c12		
			99%	72%		5.1 nM		Cc1ccn2nc([C@H](C)Nc3ncnc4[nH]cc(-c5ccccc5O)c34)n(-c3ccccc3)c(=O)c12		
	170 nM	770 nM	99%	64%	84%	1 nM	74%	Cc1ccn2nc([C@H](C)Nc3ncnc4[nH]cc(Sc5cccc(O)c5)c34)n(-c3ccccc3)c(=O)c12		
	4.3 nM		97%	21%		0.4 nM		Cc1ccn2nc([C@H](C)Nc3ncnc4[nH]cc(-c5cn[nH]c5)c34)n(-c3ccccc3)c(=O)c12		
3.6 nM	22 nM	230 nM	91%	36%	91%	0.2 nM	6%	Cc1ccn2nc([C@H](C)Nc3ncnc4[nH]cc(-c5cnn(C)c5)c34)n(-c3ccccc3)c(=O)c12		
12 nM	52 nM	1000 nM	41%	27%		1.9 nM		Cc1ccn2nc([C@H](C)Nc3ncnc4[nH]cc(-c5cccc(F)c5O)c34)n(-c3ccccc3)c(=O)c12		
